Experimental data from the supplement of paper PMC11208160.

test: recombinant barcode read abundance after kanamycin selection (control-corrected) (log10(CPM+1)); higher = more efficient recombination; sequences stand for … in AGTGCAGAGAAAATCGGCCAGTTTTCTCTGCCTGCAGTCCGCATGCCGT…AGATTTATGCAGCGGACTGCCTTTCTCCCAAAGTGATAAACCGGACAGTATCATGGACCGGTTTTCCCGGTAATCCGTATTTGCAAGGTTGGTTTCACT; site = the 11-nt target
Summary of the method: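 Targets were screened in pooled form in E. coli against IS621 bridge RNA target-binding loops. Recombination efficiency is based on barcode counts at recombinant junctions in counts per million, averaged and corrected for the control. Numbers are shown as log10(CPM+1), with duplicate plates on chloramphenicol/ampicillin LB agar (control) or chloramphenicol/ampicillin/kanamycin with 0.1 mM IPTG.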
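Note: IS621 recombinase and bridge RNA in Escherichia coli cells.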

“TAGCTCCCTTGGGTTCTAACCTGTTGCCA (site TAGCTCCCTCG)” and “TAGCTCCCTTGGGTTCTAACCTGTTGCCA (site TAGCTCCCTGG)” are within 0.2 log units of each other in “recombinant barcode read abundance (log10)” value: 0.0851 for the first, 0.0734 for the second.

Compared with “TAGCTCCCTTGGGTTCTAACCTGTTGCCA (site TAGCTCCCTTG)”, “TAGCTTACTTGGGTTCTAACCTGTTGCCG (site TAACTTACTAG)” is lower in “recombinant barcode read abundance (log10)” value: 0.662 for the first, 0.114 for the second.

Going from “TAGCTTACTTGGGTTCTAACCTGTTGCCG (site TAGCTTACTCG)” to “TAGGATACTTGGGTTCTAACCTGTTGCAA (site TAGGATACTAT)”, the “recombinant barcode read abundance (log10)” value falls from 0.523 to 0.0732.

First: TAGGATACTTGGGTTCTAACCTGTTGCAA (site TAGGATACTCT)
Second: TAGGATACTTGGGTTCTAACCTGTTGCAA (site TAGGATACTGT)
The “recombinant barcode read abundance (log10)” value of the first is higher: 0.401 for the first, 0.0992 for the second.

Compared with “TAGGATACTTGGGTTCTAACCTGTTGCAA (site TAGGATACTTT)”, “TAGGATTCTTGGGTTCTAACCTGTTGCGC (site ACCATACCTAT)” is lower in “recombinant barcode read abundance (log10)” value: 1.98 for the first, 0.114 for the second.

Going from “TAGGATTCTTGGGTTCTAACCTGTTGCGC (site TAGGATTCTGC)” to “TAGGATTCTTGGGTTCTAACCTGTTGCGT (site TAGGATGCTAC)”, the “recombinant barcode read abundance (log10)” value falls from 2.55 to 0.144.

Going from “TAGGATTCTTGGGTTCTAACCTGTTGCGT (site TAGGATTCTAC)” to “TAGGCATCTTGGGTTCTAACCTGTTGCTC (site TAGACATCTGA)”, the “recombinant barcode read abundance (log10)” value falls from 2.61 to 0.206.

First: TAGGCATCTTGGGTTCTAACCTGTTGCTC (site TAGCCATCTGA)
Second: TAGGCATCTTGGGTTCTAACCTGTTGCTC (site TAGGCATCTGA)
The “recombinant barcode read abundance (log10)” value of the first is lower: 0.36 for the first, 0.95 for the second.

Compared with “TAGGCATCTTGGGTTCTAACCTGTTGCTC (site TAGTCATCTGA)”, “TAGGCCACTTGGGTTCTAACCTGTTGCTT (site TAGGCCACTAA)” is higher in “recombinant barcode read abundance (log10)” value: 0.115 for the first, 1.61 for the second.

First: TAGGCCACTTGGGTTCTAACCTGTTGCTT (site TAGGCCACTAC)
Second: TAGGCCACTTGGGTTCTAACCTGTTGCTT (site TAGGCCACTAG)
The “recombinant barcode read abundance (log10)” value of the first is higher: 1.17 for the first, 0.36 for the second.

Compared with “TAGGCCACTTGGGTTCTAACCTGTTGCTT (site TAGGCCACTAT)”, “TAGGCGACTTGGGTTCTAACCTGTTGCCA (site ACCTTAGCTAA)” is lower in “recombinant barcode read abundance (log10)” value: 0.539 for the first, 0.119 for the second.

“TAGGCGACTTGGGTTCTAACCTGTTGCCA (site TAGGCGACTTG)” and “TAGGCTACTTGGGTTCTAACCTGTTGCAG (site TAGGCTACTAT)” are within 0.2 log units of each other in “recombinant barcode read abundance (log10)” value: 0.186 for the first, 0.206 for the second.

Going from “TAGGCTACTTGGGTTCTAACCTGTTGCAG (site TAGGCTACTCT)” to “TAGGCTACTTGGGTTCTAACCTGTTGCAG (site TAGGCTACTGT)”, the “recombinant barcode read abundance (log10)” value falls from 1.97 to 0.0351.

Compared with “TAGGCTACTTGGGTTCTAACCTGTTGCAG (site TAGGCTACTTT)”, “TAGGCTACTTGGGTTCTAACCTGTTGCAT (site TAGGCTACTAT)” is higher in “recombinant barcode read abundance (log10)” value: 0.216 for the first, 1.06 for the second.

“TAGGCTACTTGGGTTCTAACCTGTTGCAT (site TAGGCTACTCT)” and “TAGGCTACTTGGGTTCTAACCTGTTGCAT (site TAGGCTACTGT)” are within 0.2 log units of each other in “recombinant barcode read abundance (log10)” value: 0.301 for the first, 0.132 for the second.

“TAGGCTACTTGGGTTCTAACCTGTTGCAT (site TAGGCTACTTT)” and “TAGGGAGCTTGGGTTCTAACCTGTTGCAT (site TAGAGAGCTCT)” are within 0.2 log units of each other in “recombinant barcode read abundance (log10)” value: 0.00693 for the first, 0.0779 for the second.

First: TAGGGAGCTTGGGTTCTAACCTGTTGCAT (site TAGGGAGCTAT)
Second: TAGGGCACTTGGGTTCTAACCTGTTGCCG (site TAGGGCACTCA)
The “recombinant barcode read abundance (log10)” value of the first is higher: 2.8 for the first, 0.119 for the second.

Compared with “TAGGGCACTTGGGTTCTAACCTGTTGCCG (site TAGGGCACTCG)”, “TAGGGCCCTTGGGTTCTAACCTGTTGCCT (site AAGGGCCCTAG)” is lower in “recombinant barcode read abundance (log10)” value: 1.58 for the first, 0.111 for the second.

“TAGGGCCCTTGGGTTCTAACCTGTTGCCT (site CAGGGCCCTAG)” and “TAGGGCCCTTGGGTTCTAACCTGTTGCCT (site GAGGGCCCTAG)” are within 0.2 log units of each other in “recombinant barcode read abundance (log10)” value: 0.0445 for the first, 0.0503 for the second.

Going from “TAGGGCCCTTGGGTTCTAACCTGTTGCCT (site TAGGGCCCTAG)” to “TAGGGTACTTGGGTTCTAACCTGTTGCGC (site ACAACCTCTCG)”, the “recombinant barcode read abundance (log10)” value falls from 1.15 to 0.0219.

Going from “TAGGGTACTTGGGTTCTAACCTGTTGCGC (site TAGGGTACTGC)” to “TAGGTACCTTGGGTTCTAACCTGTTGCAT (site TAGGTACCTAT)”, the “recombinant barcode read abundance (log10)” value falls from 2.85 to 1.98.

“TAGGTACCTTGGGTTCTAACCTGTTGCAT (site TAGGTCCCTAT)” and “TAGGTACCTTGGGTTCTAACCTGTTGCAT (site TAGGTGCCTAT)” are within 0.2 log units of each other in “recombinant barcode read abundance (log10)” value: 0.223 for the first, 0.0753 for the second.

“TAGGTACCTTGGGTTCTAACCTGTTGCAT (site TAGGTTCCTAT)” and “TAGGTCGCTTGGGTTCTAACCTGTTGCAT (site TAGATCGCTCT)” are within 0.2 log units of each other in “recombinant barcode read abundance (log10)” value: 0.0968 for the first, 0.171 for the second.

Going from “TAGGTCGCTTGGGTTCTAACCTGTTGCAT (site TAGGTCGCTAT)” to “TAGGTGACTTGGGTTCTAACCTGTTGCGG (site TAGGTGACTCC)”, the “recombinant barcode read abundance (log10)” value falls from 2.48 to 2.13.

“TAGGTGACTTGGGTTCTAACCTGTTGCGG (site TAGGTGCCTCC)” and “TAGGTGGCTTGGGTTCTAACCTGTTGCCT (site TAGGTGGCTAG)” are within 0.2 log units of each other in “recombinant barcode read abundance (log10)” value: 0.285 for the first, 0.463 for the second.

First: TAGGTGGCTTGGGTTCTAACCTGTTGCCT (site TGGGCGGCTAG)
Second: TAGGTGTCTTGGGTTCTAACCTGTTGCCT (site TAAGTGTCTAG)
The “recombinant barcode read abundance (log10)” value of the first is lower: 0.105 for the first, 1.04 for the second.

First: TAGGTGTCTTGGGTTCTAACCTGTTGCCT (site TACGTGTCTAG)
Second: TAGGTGTCTTGGGTTCTAACCTGTTGCCT (site TAGGTGTCTAG)
The “recombinant barcode read abundance (log10)” value of the first is lower: 0.181 for the first, 1.33 for the second.

Compared with “TAGGTGTCTTGGGTTCTAACCTGTTGCCT (site TATGTGTCTAG)”, “TAGGTTCCTTGGGTTCTAACCTGTTGCCT (site TAGGTTCCTAG)” is higher in “recombinant barcode read abundance (log10)” value: 0.0655 for the first, 0.348 for the second.

“TAGGTTCCTTGGGTTCTAACCTGTTGCCT (site TCGGTTCCTAG)” and “TAGTACCCTTGGGTTCTAACCTGTTGCAC (site TAGTACCCTAT)” are within 0.2 log units of each other in “recombinant barcode read abundance (log10)” value: 0.161 for the first, 0.169 for the second.

For “TAGTACCCTTGGGTTCTAACCTGTTGCAC (site TAGTACCCTCT)”, the “recombinant barcode read abundance (log10)” value was 0.298.
